Results reported in patent US20230075822A1, “USE OF CASTALAGIN OR ANALOGS THEREOF FOR ANTI-CANCER EFFICACY AND TO INCREASE THE RESPONSE TO IMMUNE CHECKPOINT INHIBITORS” (THE ROYAL INSTITUTION FOR THE ADVANCEMENT OF …, priority 2020, published 2023).

Tested on: MCA-205 sarcoma
Test: Subcutaneous MCA-205 sarcoma tumor model (anti-PD-1 sensitive), SPF-reared mice
Assay type: in vivo, C57BL/6 mice
Conditions: 0.85 mg/kg per mouse daily oral gavage; in contrast to castalagin
Protocol: FIG. 1A is a schematic of the protocol used to study the effect of a Camu camu extract (CC) alone and additive effect when combined to anti-PD-1 therapy in a murine tumor model sensitive to anti-PD-1 therapy. Syngeneic C57BL/6 mice were implanted with 0.8×10^6 MCA-205 sarcoma, subcutaneously and treated intraperitoneally (i.p.) when tumors reached 20 to 35 mm^2 in size with anti-PD-1 mAb (250 μg/mouse; clone RMP1-14,) or isotype control (clone 2A3) with or without daily oral gavage with 200 mg/kg of [NT] Powder from SunFood). Murine studies. All animal studies were approved by the Institutional Animal Care Committee (CIPA) and carried out in compliance with the Canadian Council on Animal Care guidelines. Murine experiments were conducted using seven-week-old female C57BL/6 mice, obtained from Charles River, Canada. Germ-free female C57BL/6 mice were purchased from the International Microbiome Centre Germ-Free Facility (University of Calgary, Canada) and maintained at the CR-CHUM Germ-Free Facility. Cell culture, reagents and tumor cell lines. MCA-205 fibrosarcoma cells and E0771 mammary adenocarcinoma cells, class I MHC H-2b syngeneic cell lines for C57BL/6 mice, were used for this study. MCA-205 cells were cultured at 37° C. in the presence of 5% CO2 in Roswell Park Memorial Institute (RPMI) 1640 (Gibco-lnvitrogen) containing 10% Fetal bovine serum (FBS) (Wisent), 2 mM L-glutamine (Wisent), 100 IU/ml penicillin/streptomycin (Wisent), 1 mM sodium pyruvate (Wisent) and MEM non-essential amino acids (Gibco-lnvitrogen). E0771 cells were cultured at 37° C. in the presence of 5% CO2 in Dulbecco's Modified Eagle's Medium (DMEM) (Gibco-lnvitrogen) containing 10% FBS (Wisent), 2 mM L-glutamine, 100 IU/ml penicillin/streptomycin (Wisent), 1 mM sodium pyruvate (Wisent). Subcutaneous model of MCA-205 sarcoma and E0771 breast cancer. Syngeneic C57BL/6 mice were implanted with 0.8×10^6 MCA-205 or 0.5×10^6 E0771 subcutaneously. When tumors reached 20 to 35 mm^2 in size, mice were treated four times (or two times for flow cytometry analysis, see section below) intraperitoneally (i.p.) every three day with anti-PD-1 monoclonal antibody (mAb) (250 μg/mouse; clone RMP1-14, BioXcell) or isotype control (clone 2A3, BioXcell). Upon treatment initiation, mice received a daily oral gavage with the following products: Myrciaria dubia, [NT] raw extract (Sunfood) (200 mg/kg per mouse), fractions from the extraction round 1 (P, INT, NP, Insol) (40.18 mg/kg per mouse), fractions from the extraction round 2 (P1, P2, P3 and P4) (equivalent to fraction P dose of 40.18 mg/kg per mouse), […] (extracted from CC, see isolation process below) (0.85 mg/kg per mouse), ellagic acid (0.85 mg/kg per mouse) (Sigma-Aldrich), urolithin A (0.85 mg/kg per mouse) (Sigma-Aldrich), […] (0.5 mg/kg per mouse) (PhytoProof®, Sigma-Aldrich) and castalagin at different concentration: 1/8, 1/6, 1/4, 1/2 of the standard concentration, at the standard concentration (0.85 mg/kg per mouse), 1.5-fold (1.25 mg/kg per mouse) and three-fold increase concentration (2.55 mg/kg per mouse) (PhytoProof©, Sigma-Aldrich or isolated from food grade oak, see isolation process below). In the control group mice received daily oral gavage with water (100 μL) Tumor area was routinely monitored every three days by means of a caliper. In the depletion experiments, we used the anti-CD8 mAb (150 μg/mouse; clone 53-6.7, BioXcell) or isotype control (clone 2A3, BioXcell.

SMILES | antitumor effect (tumor size at sacrifice)
O=c1oc2cc(O)ccc2c2ccc(O)cc12 [urolithin A, reference compound] | no antitumor effects were observed
O=c1oc2c(O)c(O)cc3c(=O)oc4c(O)c(O)cc1c4c23 [ellagic acid, reference compound] | no antitumor effects were observed
O=C1OC[C@H]2OC(=O)c3cc(O)c(O)c(O)c3-c3c(O)c(O)c(O)c4c3C(=O)O[C@H]([C@H]3OC(=O)c5c-4c(O)c(O)c(O)c5[C@H]3O)[C@@H]2OC(=O)c2cc(O)c(O)c(O)c2-c2c1cc(O)c(O)c2O [vescalagin, reference compound] | no antitumor effects were observed
